Molecular target: T1, hSK2 channels (Homo sapiens, UniProt P0DP23+Q9H2S1)
T1 construct: expressed in transfected cells; host or cells: HEK293
Assay: Whole-cell patch-clamp recording of SK2 channel current (SC100)
Format: cell-based
Conditions: Stimulating Concentration required for increasing the baseline current by 100%, HEK293 cells expressing hSK2; for SC100 uM: Table 3; for SC100 (μM): Table 4
Protocol: The biological activity of certain compounds were determined as follows. The ionic current through small-conductance Ca^2+-activated K^+ channels (SK channels, subtype 2) is recorded using the whole-cell configuration of the patch-clamp technique in a classic patch-clamp set-up using HEK293 tissue culture cells expressing hSK2 channels as described in Kasumu et. al., Chemistry & Biology 19, 1340-1353, Oct. 26, 2012.
The SC100 value determined is defined as the Stimulating Concentration required for increasing the baseline current by 100%.

| Structure (SMILES) | SC100 uM | SC100 (μM) |
| --- | --- | --- |
| CC(=O)NCc1cc(Nc2ccc(Cl)cc2)nc(-n2ccc(CF)n2)c1 [Compound 164, N-((2-((4-chlorophenyl)amino)-6-(3-(fluoromethyl)-1H-pyrazol-1-yl)pyridin-4-yl)methyl)acetamide] | +++ (+++ means <200 nM) | – |
| CC(=O)NCc1cc(Nc2ccc(Cl)cc2)nc(-n2ccc(C(F)F)n2)c1 [Compound 165, N-((2-((4-chlorophenyl)amino)-6-(3-(difluoromethyl)-1H-pyrazol-1-yl)pyridin-4-yl)methyl)acetamide] | ++ (++ means 200 nM-1000 nM) | – |
| CC(=O)NCc1cc(Nc2ccc(F)cc2)nc(-n2cc(C)c(CO)n2)c1 [Compound 166, N-((2-((4-fluorophenyl)amino)-6-(3-(hydroxymethyl)-4-methyl-1H-pyrazol-1-yl)pyridin-4-yl)methyl)acetamide] | + (+ means >1 uM) | – |
| CC(=O)NCc1cc(Nc2ccc(F)cc2)nc(-n2cc(C)c(C(C)O)n2)c1 (centres unmarked) [Compound 167, N-((2-((4-fluorophenyl)amino)-6-(3-(1-hydroxyethyl)-4-methyl-1H-pyrazol-1-yl)pyridin-4-yl)methyl)acetamide] | ++ (++ means 200 nM-1000 nM) | – |
| CC(=O)NCc1cc(Nc2ccc(F)cc2)nc(-n2cc(C)c(C(F)F)n2)c1 [Compound 168, N-((2-(3-(difluoromethyl)-4-methyl-1H-pyrazol-1-yl)-6-((4-fluorophenyl)amino)pyridin-4-yl)methyl)acetamide] | +++ (+++ means <200 nM) | – |
| Cc1cc(C)n(Cc2cc(Nc3ccc(F)cc3)nc(-n3ccc(CO)n3)c2)n1 [Compound 169, (1-(4-((3,5-dimethyl-1H-pyrazol-1-yl)methyl)-6-((4-fluorophenyl)amino)pyridin-2-yl)-1H-pyrazol-3-yl)methanol] | + (+ means >1 uM) | – |
| Cc1cc(C)n(Cc2cc(Nc3ccc(F)cc3)nc(-n3ccc(CF)n3)c2)n1 [Compound 170, 4-((3,5-dimethyl-1H-pyrazol-1-yl)methyl)-6-(3-(fluoromethyl)-1H-pyrazol-1-yl)-N-(4-fluorophenyl)pyridin-2-amine] | ++ (++ means 200 nM-1000 nM) | – |
| Cc1ccn(-c2nc(Nc3c(C)cccc3Cl)cc(C(C)O)n2)n1 (centres unmarked) [IN10864-081-P1] | – | + (+ means >1 uM) |
| Cc1ccn(-c2nc(Nc3cccc(C(F)(F)F)c3)cc(C(C)O)n2)n1 (centres unmarked) [IN10876-033-P1] | – | ++ (++ means 200 nM-1000 nM) |
| CC(=O)c1cc(Nc2cccc(C(F)(F)F)c2)nc(-n2ccc(C)n2)n1 [IN10876-038-P1] | – | + (+ means >1 uM) |
| Cc1csc(-c2nc(Nc3ccc(F)cc3)cc(C(C)O)n2)n1 (centres unmarked) [IN10880-091-P1, 1-(6-((4-fluorophenyl)amino)-2-(4-methylthiazol-2-yl)pyrimidin-4-yl)ethan-1-ol] | – | ++ (++ means 200 nM-1000 nM) |
| Cc1csc(-c2nc(Nc3cccc(C(F)(F)F)c3)cc(C(C)O)n2)n1 (centres unmarked) [IN10880-092-P1] | – | ++ (++ means 200 nM-1000 nM) |
| Cc1ccn(-c2nc(Nc3ccccc3Cl)cc(C(C)O)n2)n1 (centres unmarked) [IN10881-055-P1] | – | ++ (++ means 200 nM-1000 nM) |
| Cc1ccn(-c2nc(Nc3ccc(F)cc3)cc(C(C)O)n2)n1 (centres unmarked) [IN10882-054-P1] | – | ++ (++ means 200 nM-1000 nM) |
| Cc1cc(C)n(-c2cc(C(C)O)cc(Nc3ccc(F)cc3)n2)n1 (centres unmarked) [IN10964-084-P1, 1-(2-(3,5-dimethyl-1H-pyrazol-1-yl)-6-((4-fluorophenyl)amino)pyridin-4-yl)ethan-1-ol] | – | + (+ means >1 uM) |
| Cc1cc(C)n(-c2nc(Nc3ccc(F)cc3)cc(C(C)O)n2)n1 (centres unmarked) [IN10973-006-P1] | – | ++ (++ means 200 nM-1000 nM) |

| Structure (SMILES) | SC100 uM | SC100 (μM) |
| --- | --- | --- |
| Cc1cc(C)n(-c2nc(Nc3cccc(C(F)(F)F)c3)cc(C(C)O)n2)n1 (centres unmarked) [IN10973-007-P1] | – | +++ (+++ means <200 nM) |
| COc1cc(Nc2ccc(F)cc2F)nc(-c2nc(C)cs2)n1 [IN11059-023-P1] | – | ++ (++ means 200 nM-1000 nM) |
| COc1cc(Nc2ccc(F)cc2)nc(-c2nc(C)cs2)n1 [IN11059-059-P1] | – | ++ (++ means 200 nM-1000 nM) |
| COC(C)c1cc(Nc2ccc(F)cc2F)nc(-c2nc(C)cs2)n1 (centres unmarked) [IN11059-067-P1, N-(2,4-difluorophenyl)-6-(1-methoxyethyl)-2-(4-methylthiazol-2-yl) pyrimidin-4-amine] | – | + (+ means >1 uM) |
| Cc1cc(Nc2ccc(F)cc2)nc(-c2ccccn2)n1 [IN11121-037-P1, N-(4-fluorophenyl)-6-methyl-2-(pyridin-2-yl)pyrimidin-4-amine] | – | + (+ means >1 uM) |
| Cc1cccc(-c2nccc(Nc3ccc(F)cc3)n2)n1 [IN11130-036-P1] | – | + (+ means >1 uM) |
| Fc1ccc(Nc2ccnc(-n3ccc(C4CC4)n3)n2)cc1 [IN11166-018-P1, 2-(3-cyclopropyl-1H-pyrazol-1-yl)-N-(4-fluorophenyl) pyrimidin-4-amine] | – | + (+ means >1 uM) |
| Cc1cc(Nc2ccc(F)cc2)nc(-c2ccc(C)[nH]2)n1 [IN11196-053-P1, N-(4-fluorophenyl)-6-methyl-2-(5-methyl-1H-pyrrol-2-yl)pyrimidin-4-amine] | – | + (+ means >1 uM) |
| Cc1cc(Nc2ccc(F)cc2)nc(-c2nc(C)ccc2C)n1 [IN11237-001-P1, 2-(3,6-dimethylpyridin-2-yl)-N-(4-fluorophenyl)-6-methylpyrimidin-4-amine] | – | + (+ means >1 uM) |
| CC1(O)CN(c2cc(Nc3ccc(F)cc3)nc(-n3ccc(CF)n3)c2)C1 [NSSy5632] | – | +++ (+++ means <200 nM) |
| Cc1ccn(-c2cc(CN3CCCC3=O)cc(Nc3ccc(Cl)cc3)n2)n1 [NSSy5701, 1-((2-((4-chlorophenyl)amino)-6-(3-methyl-1H-pyrazol-1-yl)pyridin-4-yl)methyl) pyrrolidin-2-one] | – | +++ (+++ means <200 nM) |
| CN(C)C1CN(c2cc(Nc3ccc(F)cc3)nc(-n3ccc(CF)n3)c2)C1 [NSSy5713] | – | + (+ means >1 uM) |
| Cc1ccn(-c2cc(CO)cc(Nc3ccc(F)cc3F)n2)n1 [NSSy6773, (2-((2,4-difluorophenyl)amino)-6-(3-methyl-1H-pyrazol-1-yl)pyridin-4-yl) methanol] | – | ++ (++ means 200 nM-1000 nM) |
| Cc1cccc(-c2nc(Nc3ccc(F)cc3)cc(N3CCOCC3)n2)n1 [NSSy6907, N-(4-fluorophenyl)-2-(6-methylpyridin-2-yl)-6-morpholinopyrimidin-4-amine] | – | ++ (++ means 200 nM-1000 nM) |
| COc1cc(Nc2ccc(F)cc2)nc(-c2cccc(C)n2)n1 [NSSy6908] | – | + (+ means >1 uM) |
| Cc1cc(Nc2ccc(F)cc2)nc(-n2ccc(C3CC3)n2)n1 [NSSy6921, 2-(3-cyclopropyl-1H-pyrazol-1-yl)-N-(4-fluorophenyl)-6-methylpyrimidin-4-amine] | – | + (+ means >1 uM) |

Reference: patent US20170355708A1, “POTASSIUM CHANNEL MODULATORS” (Cadent Therapeutics, Inc., priority 2016, published 2017)
